Measured values reported in patent publication US10793547B2, “Modulator of the cystic fibrosis transmembrane conductance regulator, pharmaceutical compositions, methods of treatment, and process for making the modulator” (Vertex Pharmaceuticals Incorporated, priority 2016, dated 2020).

Assays:
Rat hepatocytes = assay: Hepatocyte clearance, rat hepatocytes; type: in vitro ADME; conditions: percent unchanged
[1] = MDCK-Wild Type permeability, 96 well + 0.1% BSA; type: in vitro ADME; conditions: dog, MDCK, A-B direction, read-out: MDCK-Wild Type-Permeability 96 well + 0.1% BSA Papp compound (A-B)
human PXR = molecular target: T1, human PXR (Homo sapiens, UniProt O75469); assay: PXR assay: PXR mediated CYP3A4 induction in DPX-2 cell line; type: cell-based; conditions: DPX-2 cells
T1 construct: host or cells: DPX-2 cell line (derived from HepG2)
T1 sequence (O75469 1-434): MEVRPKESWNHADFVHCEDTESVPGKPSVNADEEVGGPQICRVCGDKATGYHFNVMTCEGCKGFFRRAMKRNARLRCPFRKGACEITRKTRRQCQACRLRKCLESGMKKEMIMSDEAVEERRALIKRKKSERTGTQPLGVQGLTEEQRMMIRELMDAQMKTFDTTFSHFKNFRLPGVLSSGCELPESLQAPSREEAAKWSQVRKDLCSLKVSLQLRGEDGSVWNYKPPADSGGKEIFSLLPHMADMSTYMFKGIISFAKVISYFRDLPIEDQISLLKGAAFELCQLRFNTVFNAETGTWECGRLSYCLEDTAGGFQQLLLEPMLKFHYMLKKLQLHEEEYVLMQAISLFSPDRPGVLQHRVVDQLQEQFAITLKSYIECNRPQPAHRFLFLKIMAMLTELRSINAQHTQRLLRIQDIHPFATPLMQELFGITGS
Procedure: D. Experimental Protocol for PXR Assay
The propensity for PXR mediated CYP3A4 induction is assessed using the DPX-2 cell line in vitro. This cell line, which has been licensed from Puracyp Inc. was derived from HepG2 cells and has been stably transfected with genes encoding human PXR as well as a modified luciferase reporter linked to the CYP3A4 promoter region and related distal and proximal enhancers.
The assay is run in 384 well format and each test article is administered in 11 doses ranging from 0.1 to 60 μM. On day 1, DPX-2 cells which have previously been expanded in-house and cryopreserved are thawed and seeded in tissue culture plates. The following day, media is changed and cells are cultured in media containing test article, vehicle control or the positive control compound, the clinically validated CYP3A4 inducer rifampicin. Cells are cultured in the presence of test article for 48 hours and then cell viability is assessed using fluorescence based assay (Cell Titer-Fluor, Promega) with an EnVision Plate Reader (PerkinElmer). Subsequently, CYP3A4 transactivation, which is proportional to luciferase activity, is measured by reading luminescense using the Promega One-Glo reagent system using the same plate reader.
Data processing within the Genedata software package allows reporting of max fold induction compared to vehicle control, an EC50 value for CYP3A4 inducers and an 11 point-dose response curve.

F508del-CFTR = molecular target: T2, F508del-CFTR (Homo sapiens, UniProt P13569, DEL508-508); assay: Membrane potential optical (FLIPR) assay for F508del-CFTR modulators in NIH 3T3 cells; type: cell-based; conditions: NIH 3T3 cells expressing F508del; assay A1; read-out: CFTRdF508 Cor 3T3 FLIPR 384 CFTRdF508 MP 3T3 770 EC50
T2 construct: expressed in transfected cells
T2 sequence (P13569 with tags, fused parts or gaps DEL508-508): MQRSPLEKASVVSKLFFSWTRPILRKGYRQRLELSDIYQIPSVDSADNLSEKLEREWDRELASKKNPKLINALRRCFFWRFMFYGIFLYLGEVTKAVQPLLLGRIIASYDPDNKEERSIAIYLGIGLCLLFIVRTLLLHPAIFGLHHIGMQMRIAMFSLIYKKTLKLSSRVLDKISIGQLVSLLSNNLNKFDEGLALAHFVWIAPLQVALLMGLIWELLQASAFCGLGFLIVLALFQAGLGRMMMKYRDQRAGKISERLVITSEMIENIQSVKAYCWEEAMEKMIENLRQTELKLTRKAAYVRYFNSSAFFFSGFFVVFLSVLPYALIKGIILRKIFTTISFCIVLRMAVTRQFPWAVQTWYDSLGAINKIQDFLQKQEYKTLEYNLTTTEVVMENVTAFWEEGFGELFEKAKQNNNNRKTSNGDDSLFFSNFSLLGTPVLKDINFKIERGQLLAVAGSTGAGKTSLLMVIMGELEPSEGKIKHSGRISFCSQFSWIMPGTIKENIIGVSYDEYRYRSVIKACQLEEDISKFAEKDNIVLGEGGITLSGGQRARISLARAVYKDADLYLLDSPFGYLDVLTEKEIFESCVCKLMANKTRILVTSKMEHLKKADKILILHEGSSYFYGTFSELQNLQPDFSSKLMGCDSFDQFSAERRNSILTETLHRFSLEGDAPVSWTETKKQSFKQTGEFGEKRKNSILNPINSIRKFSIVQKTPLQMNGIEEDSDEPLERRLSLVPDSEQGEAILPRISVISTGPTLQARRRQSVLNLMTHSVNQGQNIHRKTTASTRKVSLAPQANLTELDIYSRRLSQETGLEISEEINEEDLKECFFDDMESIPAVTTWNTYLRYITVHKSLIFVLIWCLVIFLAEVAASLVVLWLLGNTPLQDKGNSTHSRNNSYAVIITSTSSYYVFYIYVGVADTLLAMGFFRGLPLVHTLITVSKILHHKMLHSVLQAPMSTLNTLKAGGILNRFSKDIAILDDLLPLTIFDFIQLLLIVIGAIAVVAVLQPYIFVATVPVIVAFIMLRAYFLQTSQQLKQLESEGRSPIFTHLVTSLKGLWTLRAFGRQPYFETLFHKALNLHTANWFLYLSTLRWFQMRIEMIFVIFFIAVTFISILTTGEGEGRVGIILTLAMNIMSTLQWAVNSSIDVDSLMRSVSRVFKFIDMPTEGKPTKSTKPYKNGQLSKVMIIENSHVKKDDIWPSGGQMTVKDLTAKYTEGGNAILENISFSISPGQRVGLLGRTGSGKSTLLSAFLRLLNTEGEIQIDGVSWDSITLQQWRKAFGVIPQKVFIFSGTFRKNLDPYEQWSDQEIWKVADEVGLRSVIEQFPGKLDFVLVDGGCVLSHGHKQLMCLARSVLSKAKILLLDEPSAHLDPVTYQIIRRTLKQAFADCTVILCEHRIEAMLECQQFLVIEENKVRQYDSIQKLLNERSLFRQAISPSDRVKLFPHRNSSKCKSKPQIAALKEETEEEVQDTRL
Description: Membrane Potential Optical Methods for Assaying Properties of F508del-CFTR Modulators
The assay utilizes fluorescent voltage sensing dyes to measure changes in membrane potential using a fluorescent plate reader (e.g., FLIPR III, Molecular Devices, Inc.) as a readout for increase in functional F508del in NIH 3T3 cells. The driving force for the response is the creation of a chloride ion gradient in conjunction with channel activation and concurrent with compound treatment by a single liquid addition step after the cells have previously been loaded with a voltage sensing dye.
A1. Identification of F508del-CFTR Modulators
To identify modulators of F508del, a fluorescence based HTS assay format was developed. This HTS assay utilizes fluorescent voltage sensing dyes to measure changes in membrane potential on the FLIPR III as a measurement for increase in gating (conductance) of F508del NIH 3T3 cells. The driving force for the response is the creation of a chloride ion gradient in conjunction with channel activation and concurrent with compound treatment by a single liquid addition step after the cells have previously been loaded with a voltage sensing dye.
Bath Solution #1: (in mM) NaCl 160, KCl 4.5, CaCl2 2, MgCl2 1, HEPES 10, pH 7.4 with NaOH, Glucose 10.
Chloride-free bath solution: Chloride salts in Bath Solution #1 (above) are substituted with gluconate salts.
NIH3T3 mouse fibroblasts stably expressing F508del were used for optical measurements of membrane potential. The cells were maintained at 37° C. in 5% CO2 and 90% humidity in Dulbecco's modified Eagle's medium supplemented with 2 mM glutamine, 10% fetal bovine serum, 1×NEAA, β-ME, 1× pen/strep, and 25 mM HEPES in 175 cm^2 culture flasks. For all optical assays, the cells were seeded at 12,000 cells/well in 384-well matrigel-coated plates and cultured for 18-24 hrs at 37° C. for the potentiator assay. For the correction assay, the cells were cultured at 37° C. with and without compounds for 18-24 hours.

Row | Hepatocyte clearance-Rat Rat hepatocytes CL pct_unchanged (Rat hepatocytes) | Papp A→B [1] | CYP3A4 Induction-PXR human PXR internal Max % Activity (human PXR) | EC50 (F508del-CFTR) | SMILES
1 | 30% | 1.1 ×10⁻⁶ cm/s | 5% | 50 nM | Cc1nn(C)cc1S(=O)(=O)NC(=O)c1ccc(-n2ccc(OCC3(C(F)(F)F)CC3)n2)nc1N1CC(C(C)(C)C)CC1(C)C (single isomer, unassigned) [Compound 54, 2-(4-tert-butyl-2,2-dimethyl-pyrrolidin-1-yl)-N-(1,3-dimethylpyrazol-4-yl)sulfonyl-6-[3-[[1-(trifluoromethyl)cyclopropyl]methoxy]pyrazol-1-yl]pyridine-3-carboxamide]
2 | 19% | 3.8 ×10⁻⁶ cm/s | 3% | 170 nM | Cc1nn(C)c(C)c1S(=O)(=O)NC(=O)c1ccc(-n2ccc(OCC(C)(C)C(F)(F)F)n2)nc1N1C[C@@H](C)CC1(C)C [Compound 17, 6-[3-(3,3,3-trifluoro-2,2-dimethyl-propoxy)pyrazol-1-yl]-N-(1,3,5-trimethylpyrazol-4-yl)sulfonyl-2-[(4S)-2,2,4-trimethylpyrrolidin-1-yl]pyridine-3-carboxamide]
3 |  | 8.8 ×10⁻⁶ cm/s | 1% | 90 nM | Cc1nn(C)cc1S(=O)(=O)NC(=O)c1ccc(-n2ccc(OCC3(C(F)(F)F)CCC3)n2)nc1N1C[C@@H](C)CC1(C)C [Compound 19, N-(1,3-dimethylpyrazol-4-yl)sulfonyl-6-[3-[[1-(trifluoromethyl)cyclobutyl]methoxy]pyrazol-1-yl]-2-[(4S)-2,2,4-trimethylpyrrolidin-1-yl]pyridine-3-carboxamide]
4 |  | 2.3 ×10⁻⁶ cm/s | 6% | 1000 nM | Cc1c(S(=O)(=O)NC(=O)c2ccc(-n3ccc(OCC4CC45CC5)n3)nc2N2C[C@@H](C)CC2(C)C)cnn1C (stereo partly drawn) [Compound 26, N-(1,5-dimethylpyrazol-4-yl)sulfonyl-6-[3-(spiro[2.2]pentan-2-ylmethoxy)pyrazol-1-yl]-2-[(4S)-2,2,4-trimethylpyrrolidin-1-yl]pyridine-3-carboxamide]
5 |  | 3.8 ×10⁻⁶ cm/s | 5% | 200 nM | Cc1nn(C)cc1S(=O)(=O)NC(=O)c1ccc(-n2ccc(OCC(C3CC3)C3CC3)n2)nc1N1C[C@@H](C)CC1(C)C [Compound 32, 6-[3-(2,2-dicyclopropylethoxy)pyrazol-1-yl]-N-(1,3-dimethylpyrazol-4-yl)sulfonyl-2-[(4S)-2,2,4-trimethylpyrrolidin-1-yl]pyridine-3-carboxamide]
6 |  | 5.1 ×10⁻⁶ cm/s | 7% | 290 nM | Cc1nn(C)cc1S(=O)(=O)NC(=O)c1ccc(-n2ccc(OCC(C)(C)C(F)(F)F)n2)nc1N1C[C@H](C)CC1(C)C [Compound 37, N-(1,3-Dimethylpyrazol-4-yl)sulfonyl-6-[3-(3,3,3-trifluoro-2,2-dimethyl-propoxy)pyrazol-1-yl]-2-[(4R)-2,2,4-trimethylpyrrolidin-1-yl]pyridine-3-carboxamide]
7 |  | 4.6 ×10⁻⁶ cm/s | 8% | 1000 nM | Cc1nn(C)cc1S(=O)(=O)NC(=O)c1ccc(-n2ccc(OC(C3CC3)C3CC3)n2)nc1N1C[C@@H](C)CC1(C)C [Compound 48, 6-[3-(Dicyclopropylmethoxy)pyrazol-1-yl]-N-(1,3-dimethylpyrazol-4-yl)sulfonyl-2-[(4S)-2,2,4-trimethylpyrrolidin-1-yl]pyridine-3-carboxamide]
8 | 19% |  | 10% | 210 nM | C[C@@H]1CN(c2nc(-n3ccc(OCC4CCC4)n3)ccc2C(=O)NS(=O)(=O)c2cccnc2N)C(C)(C)C1 [D, reference compound]

More lines, now with the values behind:

Row | SMILES | Hepatocyte clearance-Rat Rat hepatocytes CL pct_unchanged (Rat hepatocytes) | Papp A→B [1] | CYP3A4 Induction-PXR human PXR internal Max % Activity (human PXR) | EC50 (F508del-CFTR)
9 | C[C@@H]1CN(c2nc(-n3ccc(OCC(C)(C)C)n3)ccc2C(=O)NS(=O)(=O)c2ccc[nH]c2=O)C(C)(C)C1 [B, reference compound] | 13% | 0.4 ×10⁻⁶ cm/s | 3% | 260 nM
10 | C[C@@H]1CN(c2nc(-n3ccc(OCC4(C(F)(F)F)CC4)n3)ccc2C(=O)NS(=O)(=O)c2cn[nH]c2)C(C)(C)C1 [Compound 5, N-(1H-pyrazol-4-ylsulfonyl)-6-[3-[[1-(trifluoromethyl)cyclopropyl]methoxy]pyrazol-1-yl]-2-[(4S)-2,2,4-trimethylpyrrolidin-1-yl]pyridine-3-carboxamide] | 33% | 0.3 ×10⁻⁶ cm/s | 0% | 1300 nM
11 | C[C@@H]1CN(c2nc(-n3ccc(OCC4(C(F)(F)F)CC4)n3)ccc2C(=O)NS(=O)(=O)c2cnn(C)c2)C(C)(C)C1 [Compound 6, N-(1-methylpyrazol-4-yl)sulfonyl-6-[3-[[1-(trifluoromethyl)cyclopropyl]methoxy]pyrazol-1-yl]-2-[(4S)-2,2,4-trimethylpyrrolidin-1-yl]pyridine-3-carboxamide] | 53% | 2.1 ×10⁻⁶ cm/s | 0.9% | 300 nM
12 | CCn1cc(S(=O)(=O)NC(=O)c2ccc(-n3ccc(OCC4(C(F)(F)F)CC4)n3)nc2N2C[C@@H](C)CC2(C)C)cn1 [Compound 7, N-(1-ethylpyrazol-4-yl)sulfonyl-6-[3-[[1-(trifluoromethyl)cyclopropyl]methoxy]pyrazol-1-yl]-2-[(4S)-2,2,4-trimethylpyrrolidin-1-yl]pyridine-3-carboxamide] |  | 3.1 ×10⁻⁶ cm/s | 4% | 650 nM
13 | C[C@@H]1CN(c2nc(-n3ccc(OCC4(C(F)(F)F)CC4)n3)ccc2C(=O)NS(=O)(=O)c2cnn(C(C)(C)C)c2)C(C)(C)C1 [Compound 8, N-(1-tert-butylpyrazol-4-yl)sulfonyl-6-[3-[[1-(trifluoromethyl)cyclopropyl]methoxy]pyrazol-1-yl]-2-[(4S)-2,2,4-trimethylpyrrolidin-1-yl]pyridine-3-carboxamide] | 62% | 3.2 ×10⁻⁶ cm/s | 10% | 400 nM
14 | Cc1nn(C)c(C)c1S(=O)(=O)NC(=O)c1ccc(-n2ccc(OCC3(C(F)(F)F)CC3)n2)nc1N1C[C@@H](C)CC1(C)C [Compound 16, 6-[3-[[1-(trifluoromethyl)cyclopropyl]methoxy]pyrazol-1-yl]-N-(1,3,5-trimethylpyrazol-4-yl)sulfonyl-2-[(4S)-2,2,4-trimethylpyrrolidin-1-yl]pyridine-3-carboxamide] | 10% | 3.9 ×10⁻⁶ cm/s | 13% | 400 nM
